From patent US12329158B2, “Large-scale methods of uniformly coating packaging surfaces with a volatile antimicrobial to preserve food freshness” (AGROFRESH INC., priority 2013, dated 2025)
In brackets after ≈: the same amount, converted by molar mass.

Key:
Botrytis cinerea [1] = experiment: In vitro volatile assay (Example 24); type: cell-based; settings: 72 h, headspace, 100% control, 3 days at 23 C, read-out: Volatile MIC (mg/L) B. cinerea
Procedure: (§1) Volatile assay: 12-well (6.5 mL volume per well) microtiter plates are used. A 3-mL volume of half strength PDA is added to each well. […] A Whatman #1 filter disk (Cat. No. 1001-0155) is placed, in duplicate, on the underside of a polyethylene PCR plate sealing film. […] The acetone is permitted to evaporate for 5 minutes. The headspace around the inoculum is then sealed inside the well by the film with the adhering disk containing the fungicide. Plates are inverted, placed over the treated disks, and sealed to prevent any of the chemical from flaking from the disk and falling onto the inoculated agar. […] Contact assay: 6-well (16.5 mL volume per well) microtiter plates are used for an in vitro inhibition assay. […] A 7.5-mL volume of the amended media is added to each well of the microtiter plate. […] The plates are sealed with a clear film and incubated for 3 days at 23° C. After incubation, plates are evaluate for percent growth relative to acetone only control.

Penicillium expansum [2] = experiment: In vitro volatile assay (Example 24); type: cell-based; settings: 72 h, headspace, 100% control, 3 days at 23 C, read-out: Volatile MIC (mg/L) P. expansum
Procedure: as §1

Botrytis cinerea [3] = experiment: Volatile MIC assay (Example 9); type: cell-based; settings: 72 h, headspace concentration, 3 days at 23 C, read-out: MIC (mg/L) BOTRCI
Procedure: (§2) A 3-mL volume of full-strength Potato Dextrose Agar (PDA) is added to each well. […] Plates are inoculated immediately prior to volatile fungicide treatment. A Whatman #1 filter disk (Cat. No. 1001-0155) is placed, in duplicate, on the underside of a polyethylene PCR plate sealing film. […] The acetone is permitted to evaporate for 5 minutes. The headspace around the inoculum is then sealed inside the well by the film with the adhering disk containing the fungicide by inverting the plates over the treated disks and sealing to prevent any of the chemical from flaking from the disk and falling onto the inoculated agar.

Glomerella cingulata = experiment: Volatile MIC assay (Example 9); type: cell-based; settings: Colletotrichum gloeosporioides, 72 h, headspace concentration, 3 days at 23 C, read-out: MIC (mg/L) GLOMCI
Procedure: as §2

Penicillium expansum [4] = experiment: Volatile MIC assay (Example 9); type: cell-based; settings: 72 h, headspace concentration, 3 days at 23 C, read-out: MIC (mg/L) PENIEX
Procedure: as §2

Alternaria alternata [5] = experiment: Volatile MIC assay (Example 9); type: cell-based; settings: 72 h, headspace concentration, 3 days at 23 C, read-out: MIC (mg/L) ALTEAL
Procedure: as §2

Monilinia fructicola [6] = experiment: Volatile MIC assay (Example 9); type: cell-based; settings: 72 h, headspace concentration, 3 days at 23 C, read-out: MIC (mg/L) MONIFC
Procedure: as §2

B. cinerea = experiment: In vitro contact assay, amended agar (Example 24); type: cell-based; settings: Botrytis cinerea, 72 h; amended agar; 100% control; 3 days at 23 C; read-out: Contact MIC (mg/L) B. cinerea
Procedure: (§3) Contact assay: 6-well (16.5 mL volume per well) microtiter plates are used for an in vitro inhibition assay. […] A 7.5-mL volume of the amended media is added to each well of the microtiter plate. […] The plates are sealed with a clear film and incubated for 3 days at 23° C. After incubation, plates are evaluate for percent growth relative to acetone only control.

P. expansum = experiment: In vitro contact assay, amended agar (Example 24); type: cell-based; settings: Penicillium expansum, 72 h; amended agar; 100% control; 3 days at 23 C; read-out: Contact MIC (mg/L) P. expansum
Procedure: as §3

Monilinia fructicola [7] = experiment: Volatile MIC of Samples 1-4 (Example 19); type: cell-based; settings: 50 µl/disk; repeat test (Table 16)
Alternaria alternata [8] = experiment: Volatile MIC of Samples 1-4 (Example 19); type: cell-based; settings: 50 µl/disk
Penicillium expansum [9] = experiment: Volatile MIC of Samples 1-4 (Example 19); type: cell-based; settings: 50 µl/disk
Botrytis cinerea [10] = experiment: Volatile MIC of Samples 1-4 (Example 19); type: cell-based; settings: 50 µl/disk
Procedure: A 3-ml volume of full-strength Potato Dextrose Agar (PDA) is added to each well. […] Cat. No. 1001-0155) are placed on the underside of a polyethylene PCR plate sealing film. […] The acetone is permitted to evaporate for 5 minutes. The headspace around the Botrytis cinerea inoculum is then sealed inside the well by the film with the adhering disk containing the fungicide. Plates are inverted to prevent any possibility of the chemical from flaking from the disk and falling onto the inoculated agar.

Penicillium digitatum [11] = experiment: Green mold on orange, contact assay (Example 25); type: in vivo; settings: Contact (dip); rate not given; day 3 at 21 C after 5 days at 1 C
Procedure: (§4) A 250 mL solution of each concentration is used to dip two inoculated fruits, one minute per fruit, performed in triplicate per rate. The dipped fruits are then placed back into the clamshells and then into the SnapWare container and incubated at 1° C. for 5 days. […] Volatile application of Compound A results in excellent inhibition of browning and sporulation, whereas all other active ingredients result in no or little inhibition.

Penicillium expansum [12] = experiment: Blue mold on apple and pear, volatile assay (Example 25); settings: 50 mg/L, day 3 at 21 C after 5 days at 1 C
Procedure: Two apples, pears or oranges are placed in a clamshell, and three fresh wounds are made near the equatorial region of each fruit. Each fruit wound is then inoculated with 20 μL of 1×10^6 spores per mL of Penicillium expansum or digitatum suspension, respectively. The inoculum is allowed to dry for two hours prior to treatment application as a volatile or contact.
Volatile Assay: Clamshells are then placed at the bottom of a 2.55-L SnapWare airtight container (Model #109842). […] The solutions are pipetted into Whatman filter disks mounted to the inside lid of the container. The chambers are then incubated at 1° C. for 5 days, removed to 21° C., and evaluated on day 3 by determining the diameter (mm) of rot development (browning) or sporulation.

Penicillium digitatum [13] = experiment: Green mold on orange, volatile assay (Example 25); type: in vivo; settings: 50 mg/L, day 3 at 21 C after 5 days at 1 C
Penicillium expansum [14] = experiment: Blue mold on apple and pear, contact assay (Example 25); type: in vivo; settings: Contact (dip); rate not given; day 3 at 21 C after 5 days at 1 C
Procedure: as §4

[15] = tested on: Trichophyton mentagrophytes; experiment: In vitro contact assay (Example 26); type: cell-based; settings: Trichophyton mentagrophytes, 120 h, 5 days at 28 C, 100% control, read-out: MIC (mg/L) Trichophyton mentagrophytes
Procedure: (§5) Half-strength Potato Dextrose Agar (PDA) is amended with a mixture of one of the test compounds in acetone or methanol to a final concentration of 50, 10, 2, 0.4 or 0.08 mg/L. A 3-mL volume of the amended media is added to each well of the microtiter plate. […] The plates are sealed with a clear film and incubated inverted for 5 days at 28° C.

Epidermophyton floccus [16] = experiment: In vitro contact assay (Example 26); type: cell-based; settings: Epidermophyton, 120 h, 5 days at 28 C, 100% control, read-out: MIC (mg/L) Epidermophyton floccus
Procedure: as §5

Trichophyton rubrum [17] = experiment: In vitro contact assay (Example 26); type: cell-based; settings: Trichophyton rubrum, 120 h, 5 days at 28 C, 100% control, read-out: MIC (mg/L) Trichophyton rubrum
Procedure: as §5

[18] = tested on: Trichophyton mentagrophytes; experiment: In vitro volatile assay (Example 26); type: cell-based; settings: Trichophyton mentagrophytes, 120 h, 5 days at 28 C, 100% control, read-out: MIC (mg/L) Trichophyton mentagrophytes
Procedure: (§6) Volatile assay: 6-well (16.5 mL volume per well) microtiter plates are used in an in vitro inhibition assay for Compounds A and 31, and compared to other registered fungicides (5-fluorocytosine, Amphotericin B, aspofungin diacetate, Fluconazole and Itraconazole). A 7.5-mL volume of half strength PDA is added to each well. After drying, a mycelial plug (5 mm diameter) is aseptically obtained from actively growing cultures of Epidermophyton floccus, Trichophyton rubrum, or Trichophyton mentagrophytes and placed at the center of the plate with the mycelial side in contact with the agar. A Whatman #1 filter disk (Cat. No. 1001-325) is placed, in duplicate, on the underside of a polyethylene PCR plate sealing film. […] The headspace around the inoculum is then sealed inside the well by the film with the adhering disk containing the fungicide and incubated inverted for 5 days at 28° C.

Epidermophyton floccus [19] = experiment: In vitro volatile assay (Example 26); type: cell-based; settings: Epidermophyton, 120 h, 5 days at 28 C, 100% control, read-out: MIC (mg/L) Epidermophyton floccus
Procedure: as §6

Trichophyton rubrum [20] = experiment: In vitro volatile assay (Example 26); type: cell-based; settings: Trichophyton rubrum, 120 h, 5 days at 28 C, 100% control, read-out: MIC (mg/L) Trichophyton rubrum
Procedure: as §6

`COB1OCc2ccccc21` [Compound 6] showed an MIC (Botrytis cinerea [1]) of 4.5 mg/L (≈ 30.4 µM), an MIC (Penicillium expansum [2]) of 17.9 mg/L (≈ 121 µM) and an MIC (Botrytis cinerea [3]) of 2.2 mg/L (≈ 14.9 µM). It also gave an MIC (Glomerella cingulata) of 17.9 mg/L (≈ 121 µM), an MIC (Penicillium expansum [4]) of 17.9 mg/L (≈ 121 µM) and an MIC (Alternaria alternata [5]) of 4.5 mg/L (≈ 30.4 µM). For the same molecule, the MIC (Monilinia fructicola [6]) was 8.9 mg/L (≈ 60.1 µM), the MIC (B. cinerea) was 2 mg/L (≈ 13.5 µM) and the MIC (P. expansum) was 2 mg/L (≈ 13.5 µM).
For `OB1OCc2cc(Cl)ccc21` [Compound 201], the MIC (Botrytis cinerea [3]) was 3.8 mg/L (≈ 22.6 µM), the MIC (Glomerella cingulata) was 9.3 mg/L (≈ 55.2 µM) and the MIC (Penicillium expansum [4]) was 29.5 mg/L (≈ 175 µM). The MIC (Alternaria alternata [5]) was 16.1 mg/L (≈ 95.6 µM) and the MIC (Monilinia fructicola [6]) was 8.5 mg/L (≈ 50.5 µM).
For `CC(C)(OB1OCc2cc(F)ccc21)C(C)(C)OB1OCc2cc(F)ccc21` [Sample 3], the “MIC mg/l Monilinia fructicola” value (Monilinia fructicola [7]) was 1.1 mg/L, the “MIC mg/l Alternaria alternata” value (Alternaria alternata [8]; first test (Table 15)) was 2.2 mg/L and the “MIC mg/l Alternaria alternata” value (Alternaria alternata [8]; repeat test (Table 16)) was greater than 2.2 mg/L. For the same molecule, the “MIC mg/l Penicillium expansum” value (Penicillium expansum [9]; first test (Table 15)) was 4.5 mg/L, the “MIC mg/l Penicillium expansum” value (Penicillium expansum [9]; repeat test (Table 16)) was 8.9 mg/L and the “MIC mg/l Botrytis cinerea” value (Botrytis cinerea [10]; first test (Table 15)) was less than 0.6 mg/L. The “MIC mg/l Botrytis cinerea” value (Botrytis cinerea [10]; repeat test (Table 16)) was 1.1 mg/L.
`COCCOB1OCc2ccccc21` [Compound 8] was tested, and the MIC (Botrytis cinerea [3]) was 2.2 mg/L (≈ 11.5 µM), the MIC (Glomerella cingulata) was 71.4 mg/L (≈ 372 µM) and the MIC (Penicillium expansum [4]) was 35.7 mg/L (≈ 186 µM). For the same molecule, the MIC (Alternaria alternata [5]) was 8.9 mg/L (≈ 46.3 µM) and the MIC (Monilinia fructicola [6]) was 4.5 mg/L (≈ 23.4 µM).
In the case of `COCCCOB1OCc2ccccc21` [Compound 7], the MIC (Botrytis cinerea [3]) is reported as 2.2 mg/L (≈ 10.7 µM), the MIC (Glomerella cingulata) is reported as 71.4 mg/L (≈ 347 µM) and the MIC (Penicillium expansum [4]) is reported as 17.9 mg/L (≈ 86.9 µM). It also gave an MIC (Alternaria alternata [5]) of 8.9 mg/L (≈ 43.2 µM) and an MIC (Monilinia fructicola [6]) of 8.9 mg/L (≈ 43.2 µM).
In the case of `Cc1cc(C)nc(Nc2ccccc2)n1` [Pyrimethanil], the “Orange Sporulation (mm)” value (Penicillium digitatum [11]) is reported as 0.0 mm, the “Apple Browning (mm)” value (Penicillium expansum [12]) is reported as 11.3 mm and the “Apple Sporulation (mm)” value (Penicillium expansum [12]) is reported as 2.6 mm. For the same molecule, the “Pear Browning (mm)” value (Penicillium expansum [12]) was 14.0 mm, the “Pear Sporulation (mm)” value (Penicillium expansum [12]) was 6.5 mm and the “Orange Sporulation (mm)” value (Penicillium digitatum [13]) was 22.3 mm. The “Apple Browning (mm)” value (Penicillium expansum [14]) was 8.1 mm, the “Apple Sporulation (mm)” value (Penicillium expansum [14]) was 2.4 mm and the “Pear Browning (mm)” value (Penicillium expansum [14]) was 8.9 mm. For the same molecule, the “Pear Sporulation (mm)” value (Penicillium expansum [14]) was 5.2 mm.
Molecule `OC(Cn1cncn1)(Cn1cncn1)c1ccc(F)cc1F` [Fluconazole] has an MIC [15] greater than 50 mg/L, an MIC (Epidermophyton floccus [16]) of 10 mg/L (≈ 32.7 µM) and an MIC (Trichophyton rubrum [17]) of 50 mg/L (≈ 163 µM). It also gave an MIC [18] greater than 50 mg/L, an MIC (Epidermophyton floccus [19]) greater than 50 mg/L and an MIC (Trichophyton rubrum [20]) greater than 50 mg/L.
In the case of `C=CCOC(Cn1ccnc1)c1ccc(Cl)cc1Cl` (stereo not drawn) [Imazalil], the “Orange Sporulation (mm)” value (Penicillium digitatum [11]) is reported as 0.0 mm, the “Apple Browning (mm)” value (Penicillium expansum [12]) is reported as 11.1 mm and the “Apple Sporulation (mm)” value (Penicillium expansum [12]) is reported as 3.0 mm. For the same molecule, the “Pear Browning (mm)” value (Penicillium expansum [12]) was 14.3 mm, the “Pear Sporulation (mm)” value (Penicillium expansum [12]) was 3.4 mm and the “Orange Sporulation (mm)” value (Penicillium digitatum [13]) was 41.4 mm. The “Apple Browning (mm)” value (Penicillium expansum [14]) was 6.9 mm, the “Apple Sporulation (mm)” value (Penicillium expansum [14]) was 0.9 mm and the “Pear Browning (mm)” value (Penicillium expansum [14]) was 7.9 mm. The “Pear Sporulation (mm)” value (Penicillium expansum [14]) was 1.0 mm.
